Target: S1P1 receptors (Homo sapiens, UniProt P21453)
Assay: 35S-GTPyS binding assay
Format: biochemical
Settings: 35S-GTPyS binding to membranes, 90 min at room temperature; 10 μM S1P used as 100% maximum efficacy
Method: The effect of the compounds was measured using a 35S-GTPyS binding assay. Briefly, membranes were incubated in a buffer containing 20 mM HEPES pH 7.4, 100 mM NaCl, 10 mM MgCl2, 10 μM GDP, 50 μg/mL saponin and 0.2% fatty acid-free BSA at various concentrations (0.1 nM-10 μM) and 0.1 nM 35S-GTPyS. 10 μM S1P was used as 100% maximum efficacy. The assay was incubated for 90 min at room temperature with gentle mixing, and terminated by filtrating the reaction mixture through GF/C filter plates using the Manifold Filtration System. The filters were immediately washed with sodium phosphate pH 7.4 buffer. After drying the filter plates scintillant liquid were added to each well and 35S-GTPyS binding was measured on a Trilux Scintillation Counter.

S1P1 receptors, sequence (P21453 whole entry): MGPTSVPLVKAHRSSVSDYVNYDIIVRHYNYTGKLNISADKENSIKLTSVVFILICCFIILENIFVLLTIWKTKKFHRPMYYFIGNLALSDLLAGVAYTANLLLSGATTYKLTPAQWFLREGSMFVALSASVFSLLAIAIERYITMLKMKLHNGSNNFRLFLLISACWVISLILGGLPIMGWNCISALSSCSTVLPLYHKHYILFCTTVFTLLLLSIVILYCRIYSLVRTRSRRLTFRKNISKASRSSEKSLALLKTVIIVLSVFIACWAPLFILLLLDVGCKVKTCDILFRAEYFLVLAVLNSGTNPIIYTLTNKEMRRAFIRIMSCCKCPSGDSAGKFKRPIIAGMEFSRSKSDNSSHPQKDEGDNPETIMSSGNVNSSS

Compared with `CCc1ncc(-c2nc(-c3cc(C)c(CCC(N)=O)c(C)c3)no2)c2c1CC(C)(C)CC2` [Example 6, 3-(4-(5-(1-ethyl-7,7-dimethyl-5,6,7,8-tetrahydroisoquinolin-4-yl)-1,2,4-oxadiazol-3-yl)-2,6-dimethylphenyl)propanamide], `CCc1ncc(-c2nc(-c3cc(C)c(CCN)c(C)c3)no2)c2c1CC(C)(C)CC2` [Example 7, 2-(4-(5-(1-ethyl-7,7-dimethyl-5,6,7,8-tetrahydroisoquinolin-4-yl)-1,2,4-oxadiazol-3-yl)-2,6-dimethylphenyl)ethanamine] is 2.7-fold lower in EC50: 29 nM for the first, 10.8 nM for the second.

`Cc1cc(-c2noc(-c3cnc(C4CC4)c4c3CCC(C)(C)C4)n2)cc(C)c1CCC(=O)O` [Example 8, 3-(4-(5-(1-cyclopropyl-7,7-dimethyl-5,6,7,8-tetrahydroisoquinolin-4-yl)-1,2,4-oxadiazol-3-yl)-2,6-dimethylphenyl)propanoic acid] and `Cc1cc(-c2noc(-c3cncc4c3CCC(C)(C)C4)n2)cc(C)c1CCN1CC(C(=O)O)C1` [Example 25, 1-(4-(5-(7,7-dimethyl-5,6,7,8-tetrahydroisoquinolin-4-yl)-1,2,4-oxadiazol-3-yl)-2,6-dimethylphenethyl)azetidine-3-carboxylic acid] are within 1.5-fold of each other in EC50: 28.5 nM for the first, 36.7 nM for the second.

`Cc1cc(-c2noc(-c3cncc4c3CCC(C)(C)C4)n2)cc(C)c1CC(O)CO` (centres unmarked) [Example 22, 3-(4-(5-(7,7-dimethyl-5,6,7,8-tetrahydroisoquinolin-4-yl)-1,2,4-oxadiazol-3-yl)-2,6-dimethylphenyl)propane-1,2-diol] and `Cc1cc(-c2noc(-c3cnc(N(C)C)c4c3CCC(C)(C)C4)n2)cc(C)c1CC(O)CO` (centres unmarked) [Example 37, 3-(4-{5-[1-(dimethylamino)-7,7-dimethyl-5,6,7,8-tetrahydroisoquinolin-4-yl]-1,2,4-oxadiazol-3-yl}-2,6-dimethylphenyl)propane-1,2-diol] are within 1.5-fold of each other in EC50: 19 nM for the first, 21.7 nM for the second.

`Cc1cc(-c2noc(-c3cncc4c3CCC(C)(C)C4)n2)cc(C)c1CCNCC(F)F` [Example 24, N-(4-(5-(7,7-dimethyl-5,6,7,8-tetrahydroisoquinolin-4-yl)-1,2,4-oxadiazol-3-yl)-2,6-dimethylphenethyl)-2,2-difluoroethanamine] and `CNc1ncc(-c2nc(-c3cc(C)c(OCCN)c(C)c3)no2)c2c1CC(C)(C)CC2` [Example 36, 4-{3-[4-(2-aminoethoxy)-3,5-dimethylphenyl]-1,2,4-oxadiazol-5-yl}-N,7,7-trimethyl-5,6,7,8-tetrahydroisoquinolin-1-amine] are within 1.5-fold of each other in EC50: 19.4 nM for the first, 16.4 nM for the second.

From US20110274657A1, “OXADIAZOLE DERIVATIVES AS S1P1 RECEPTOR ANTAGONISTS” (priority 2009, published 2011)
